Structures can show the parent of a compound that is named as a salt.
Tests used:
keratinocytes = assay: Expansion of keratinocytes in KSFM supplemented with combinations of components; format: cell-based, human; details: for cell growth rate: KSFM with EGF, isoproterenol, A 83-01 and rHA
Experimental: In another experiment, keratinocytes were cultured in KSFM supplemented with various combinations of components.
In another experiment, keratinocytes were cultured in the presence of increasing doses of ROCK inhibitor (Y-27632) or Myosin II ATPase inhibitor (blebbistatin), in KSFM supplemented with EGF (0.5 ng/mL), isoproterenol (3 μM), A 83-01 (1 μM), and recombinant human serum albumin (expressed in rice; 100 μg/mL).
In another experiment, keratinocytes were cultured in the presence of increasing doses (between 10 nM to 2 μM) of retinoic acid receptors (RAR) antagonist BMS-453 or retinoic acid receptors (RAR) antagonist BMS-195614, in KSFM supplemented with EGF (0.5 ng/mL), isoproterenol (3 μM), A 83-01 (1 μM), and recombinant human serum albumin (expressed in rice; 100 μg/mL).

[1] = tested on: late passage prostate epithelial cells; assay: Proliferation of late passage prostate epithelial cells in KSFM plus compounds, 5 days; format: cell-based, human; details: for total cell number after 5 days: KSFM plus individual compound alone, 1 μM and 0.2 μM (FIG. 16)
Experimental: Stocks of certain chemicals used in the study were prepared by dissolving in DMSO to 10 mM. The chemical stocks were added to culture media to desired final concentrations, as described in Examples 2 to 5 and shown in FIGS. 1 to 17, from the time when cell culture was initiated.
In a control experiment with no added compound, there was minimum increase of cell numbers after 5 days.
In control experiment with no inhibitor added to KSFM, there was minimum increase of cell numbers after 5 days. […] As described above, these include Rho kinase inhibitors (i.e., Rho-associated protein kinase inhibitors) such as Y-27632, SR 3677, GSK 429286 and Thiazovivin; PAK1 inhibitor IPA-3; and myosin II inhibitor (i.e., non-muscle myosin II (NM II) inhibitor) Blebbistatin.

[2] = tested on: bronchial epithelial cells; assay: Growth (population doublings) of bronchial epithelial cells in culture; format: cell-based, human; details: added to KSFM
Experimental: (§1) Epithelial cells (prostate epithelial cells and bronchial epithelial cells) were plated at 3,000-10,000 viable cells/cm^2 in tissue culture vessels, using culture medium as indicated in Examples 2 to 5 and FIGS. 1 to 17, and incubated at 37° C. with 5% CO2. The medium was changed every 2 or 3 days. Cells were sub-cultured using standard trypsinization method when they were about 70-90% confluent. Total cell number was determined using the Countess II Automated Cell Counter (Life Technologies, AMQAX1000) following manufacturer's instructions.
(§2) A formula used for the calculation of population doublings (PD) is presented in Equation A: n=3.32*(log Y−log I)+X Equation A where n=the final PD number at end of a given subculture, Y=the cell yield at the time of harvesting, I=the cell number used as inoculum to begin that subculture, and X=the doubling level of the inoculum used to initiate the subculture being quantitated.
(§3) Prostate and bronchial epithelial cells were grown in KSFM in the presence of Rho kinase inhibitor (i.e., Rho-associated protein kinase inhibitor) Y-27632.
Similar to the experiment above, bronchial epithelial cells were grown in KSFM in the presence of media alone, ALK5 inhibitor A83-01, Rho kinase inhibitor (i.e., Rho-associated protein kinase inhibitor) Y-27632, or both (with or without collagen).

[3] = tested on: human telomerase reverse transcriptase (hTERT) gene; assay: hTERT expression by quantitative real-time PCR in bronchial epithelial cells; format: cell-based; details: KSFM
Experimental: (§4) Total RNA was prepared using TRIzol® Plus RNA Purification Kit (Life Technologies, 12183-555) and PureLink® RNA Mini Kit (Life Technologies, 12183018A), following the manufacturer's instructions. One hundred nanogram total RNA was used for the determination of human telomerase reverse transcriptase (hTERT) expression using the TaqMan® RNA-to-CT™ 1-Step Kit (Life Technologies, 4392938), following the protocol provided by the supplier. hTERT primers and Taqman® probe used were as follows: forward primer, 5′-[…]-3′ (SEQ ID NO:7), reverse primer, 5′-[…]-3′ (SEQ ID NO:8) and Taqman® probe, 5′-[…]-3′ (SEQ ID NO:9).
(§5) In this example, hTERT expression in epithelial cells was assessed in the presence of an ALK5 inhibitor, a Rho kinase inhibitor (i.e., a Rho-associated protein kinase inhibitor), or both. Expression of hTERT gene was examined by quantitative real-time PCR in bronchial epithelial cells and prostate epithelial cells. The cells were treated with an ALK5 inhibitor, A83-01, or a Rho kinase inhibitor (i.e., a Rho-associated protein kinase inhibitor), Y-27632, or both inhibitors, at different passages in KSFM.

[4] = tested on: human telomerase reverse transcriptase (hTERT) gene; assay: hTERT expression by quantitative real-time PCR in prostate epithelial cells; format: cell-based; details: KSFM
Experimental: as §4, §5
As shown in FIG. 6A and FIG. 6B, prostate epithelial cells at early passage (p2) expressed low level of hTERT, which quickly diminished at passage 3 and became non-detectible by passage 5.

[5] = tested on: prostate epithelial cells; assay: Growth (population doublings) of prostate epithelial cells in culture; format: cell-based, human; details: added to KSFM
Experimental: as §1, §2, §3
To examine the effects of additional in vitro and/or ex vivo growth conditions, prostate epithelial cells were grown in KSFM or PrEGM in the presence of media alone, ALK5 inhibitor A83-01, Rho kinase inhibitor (i.e., Rho-associated protein kinase inhibitor) Y-27632, or both (with or without collagen).

[6] = used together with A83-01 in KSFM, 5 μM, 1 μM and 0.2 μM (FIG. 17)
[7] = increasing doses (between 10 nM to 2 μM)

Structure (SMILES) | total cell number after 5 days ([1]; 5 μM) | cell proliferation after 5 days [1, 6] | also measured
Cc1ccc2c(c1)C(=O)C1(O)CCN(c3ccccc3)C1=N2 (racemic) [Blebbistatin, (±)-1,2,3,3a-Tetrahydro-3a-hydroxy-6-methyl-1-phenyl-4H-pyrrolo[2,3-b]quinolin-4-one] | did not increase proliferation | synergistically increased | cell growth rate (keratinocytes; increasing doses): No significant increase of cell growth rate
Cc1cccc(-c2nn(C(=S)Nc3ccccc3)cc2-c2ccnc3ccccc23)n1 [A83-01, 3-(6-Methyl-2-pyridinyl)-N-phenyl-4-(4-quinolinyl)-1H-pyrazole-1-carbothioamide] | pronounced increase of total cell number |  | total population doublings [2]: also increased the total population doublings; hTERT expression ([3]; early passage (p3)): robustly induced; hTERT expression ([3]; late passage (p6)): sustained measurable hTERT expression; hTERT expression ([4]; early passage (p2)): quickly induced; hTERT expression ([4]; late passage (p5)): sustained measurable hTERT expression; cell proliferation after 5 days ([1]; KSFM plus compound alone (FIG. 17)): significantly increased; total population doublings [5]: also increased the total population doublings
CC1(C)CC=C(c2ccccc2)c2cc(/C=C/c3ccc(C(=O)O)cc3)ccc21 [BMS-453] |  |  | proliferation of keratinocytes (keratinocytes; 100 nM, with A83-01, EGF, isoproterenol and rHA): further increased the proliferation of keratinocytes; cell growth rate (keratinocytes; [7]): further enhance cell growth rate at sub-micromolar doses
CC1(C)CC=C(c2cnc3ccccc3c2)c2cc(C(=O)Nc3ccc(C(=O)O)cc3)ccc21 [BMS-195614] |  |  | cell growth rate (keratinocytes; [7]): further enhance cell growth rate at sub-micromolar doses
CC1=C(C(=O)Nc2cc3cn[nH]c3cc2F)C(c2ccc(C(F)(F)F)cc2)CC(=O)N1 (stereo not shown) [GSK 429286, 4-[4-(Trifluoromethyl)phenyl]-N-(6-Fluoro-1H-indazol-5-yl)-2-methyl-6-oxo-1,4,5,6-tetrahydro-3-pyridinecarboxamide] | slight increase of total cell numbers | synergistically increased | 
O=C(NC1CCOCC1)c1ccc(-c2cc(-c3c[nH]nc3-c3ccccn3)ccn2)cc1 [GW 788388, 4-[4-[3-(2-Pyridinyl)-1H-pyrazol-4-yl]-2-pyridinyl]-N-(tetrahydro-2H-pyran-4-yl)-benzamide] | pronounced increase of total cell number | little extra increase | 
Oc1ccc2ccccc2c1SSc1c(O)ccc2ccccc12 [IPA-3, 1,1′-Dithiodi-2-naphthtol] | did not increase proliferation | synergistically increased | 
Cc1cccc(-c2n[nH]cc2-c2ccc3ncccc3n2)n1 [RepSox, 2-(3-(6-Methylpyridine-2-yl)-1H-pyrazol-4-yl)-1,5-naphthyridine] | pronounced increase of total cell number | little extra increase | 
NC(=O)c1ccc(-c2nc(-c3ccc4c(c3)OCO4)c(-c3ccccn3)[nH]2)cc1 [SB 431542, 4-[4-(1,3-benzodioxol-5-yl)-5-(2-pyridinyl)-1H-imidazol-2-yl]benzamide] | pronounced increase of total cell number | little extra increase | 
CN(C)CCOc1cc(-c2cn[nH]c2)ccc1NC(=O)C1COc2ccccc2O1 (stereo not shown) [SR 3677, N-[2-[2-(Dimethylamino)ethoxy]-4-(1H-pyrazol-4-yl)phenyl-2,3-dihydro-1,4-benzodioxin-2-carboxamidedihydrochloride] | slight increase of total cell numbers | synergistically increased | 
O=C(NCc1ccccc1)c1csc(Nc2ccncn2)n1 [Thiazovivin, N-Benzyl-[2-(pyrimidin-4-yl)amino]thiazole-4-carboxamide] | slight increase of total cell numbers | synergistically increased | 

From patent US11060715B2, “Ex vivo proliferation of epithelial cells” (PROPAGENIX INC., priority 2015, dated 2021)
